From EP0664802B1, “N-ARYLHETEROARYLALKYL 1-PHENYL-IMIDAZOL-2-ONE COMPOUNDS FOR TREATMENT OF CIRCULATORY DISORDERS” (G.D. SEARLE & CO., priority 1992, dated 1994)
“And” between values parts separate entries of the source, which are not always exact repeats. Equal entries are not always repeated.

Columns and labels:
[1] = tested on: pressor response to AII; experiment: Assay C: In Vivo Intragastric Pressor Assay Response for AII antagonists; set-up: species or system Sprague-Dawley rats; conditions: Dose: 3 mg/kg (i.g.); for Assay C Duration: AII challenges up to 180 minutes after gavage; for Assay C Inhibition (%): inhibition of pressor response to 30 ng/kg AII bolus, conscious rats
Protocol: Assay C: In Vivo Intragastric Pressor Assay Response for All Antagonists
Male Sprague-Dawley rats weighing 225-300 grams were anesthetized with methohexital (30 mg/kg, i.p.) and catheters were implanted into the femoral artery and vein. The catheters were tunneled subcutaneously to exit dorsally, posterior to the head and between the scapulae. The catheters were filled with heparin (1000 units/ml of saline). The rats were returned to their cage and allowed regular rat chow and water ad libitum. After full recovery from surgery (3-4 days), rats were placed in Lucite holders and the arterial line was connected to a pressure transducer. Arterial pressure was recorded on a Gould polygraph (mmHg). Angiotensin II was administered as a 30 ng/kg bolus via the venous catheter delivered in a 50 µl volume with a 0.2 ml saline flush. The pressor response in mm Hg was measured by the difference from pre-injection arterial pressure to the maximum pressure achieved. The AII injection was repeated every 10 minutes until three consecutive injections yielded responses within 4 mmHg of each other. These three responses were then averaged and represented the control response to AII. The test compound was suspended in 0.5% methylcellulose in water and was administered by gavage. The volume administered was 2 ml/kg body weight. The standard dose was 3 mg/kg. Angiotensin II bolus injections were given at 30, 45, 60, 75, 120, 150, and 180 minutes after gavage. The pressor response to AII was measured at each time point. The rats were then returned to their cage for future testing. A minimum of 3 days was allowed between tests. Percent inhibition was calculated for each time point following gavage by the following formula: [(Control Response - Response at time point)/Control Response] X 100 [formula] .

[2] = tested on: rabbit aortic rings; experiment: Assay B: In Vitro Vascular Smooth Muscle Response for AII (antagonist activity, isometric force); assay type: cell-based; conditions: antagonist at 10^-5 M, 5 min before AII challenge; Schild; aorta rings from two rabbits (two values per cell)
Protocol: Assay B: In Vitro Vascular Smooth Muscle-Response for AII
The compounds of the invention were tested for antagonist activity in rabbit aortic rings. Male New Zealand white rabbits (2-2.5 kg) were sacrificed using an overdose of pentobarbital and exsanguinated via the carotid arteries. The thoracic aorta was removed, cleaned of adherent fat and connective tissue and then cut into 3-mm ring segments. The endothelium was removed from the rings by gently sliding a rolled-up piece of filter paper into the vessel lumen. The rings were then mounted in a water-jacketed tissue bath, maintained at 37°C, between moveable and fixed ends of a stainless steel wire with the moveable end attached to an FT03 Grass transducer coupled to a Model 7D Grass Polygraph for recording isometric force responses. The bath was filled with 20 ml of oxygenated (95% oxygen/5% carbon dioxide) Krebs solution of the following composition (mM): 130 NaCl, 15 NaHC03, 15 KCl, 1.2 NaH2P04, 1.2 MgS04, 2.5 CaC12, and 11.4 glucose. The preparations were equilibrated for one hour before approximately one gram of passive tension was placed on the rings. Angiotensin II concentration-response curves were then recorded (3 X 10^-10 to 1 x 10^-5 M). Each concentration of AII was allowed to elicit its maximal contraction, and then AII was washed out repeatedly for 30 minutes before rechallenging with a higher concentration of AII. Aorta rings were exposed to the test antagonist at 10^-5 M for 5 minutes before challenging with AII. Adjacent segments of the same aorta ring were used for all concentration-response curves in the presence or absence of the test antagonist. The effectiveness of the test compound was expressed in terms of pA2 values and were calculated according to H.O. Schild [Br. J. Pharmacol. Chemother., 2,189-206 (1947)]. The pA2 value is […] of the antagonist which increases the EC50 value for AII by a factor of two. Each test antagonist was evaluated in aorta rings from two rabbits.

CCCCc1cn(-c2ccccc2CC)c(=O)n1Cc1ccc(-c2ccccc2-c2nnn[nH]2)nc1 [Example 1, 1-(2-ethylphenyl)-4-butyl-1,3-dihydro-3-[[6-[2-(1H-tetrazol-5-yl)phenyl]-3-pyridinyl]methyl]-2H-imidazol-2-one]
Assay C Duration [1]: >180 min
Assay C Inhibition (%) [1]: 80%

CCCCc1cn(-c2ccccc2C(C)(C)C)c(=O)n1Cc1ccc(-c2ccccc2-c2nnn[nH]2)nc1 [Example 2, 1-(2-tertbutylphenyl)-4-butyl-1,3-dihydro-3-[[6-[2-(1H-tetrazol-5-yl)phenyl]-3-pyridinyl]methyl]-2H-imidazol-2-one]
Assay C Duration [1]: >180 min
Assay C Inhibition (%) [1]: 40%

CCCCc1cn(-c2c(OC)cccc2OC)c(=O)n1Cc1ccc(-c2ccccc2-c2nnn[nH]2)nc1 [Example 3, 1-(2,6-dimethoxyphenyl)-4-butyl-1,3-dihydro-3-[[6-[2-(1H-tetrazol-5-yl)phenyl]-3-pyridinyl]methyl]-2H-imidazol-2-one]
Assay C Duration [1]: >180 min
Assay C Inhibition (%) [1]: 25%

CCCCc1cn(-c2c(C)cccc2Cl)c(=O)n1Cc1ccc(-c2ccccc2-c2nnn[nH]2)nc1 [Example 4, 1-(2-chloro-6-methylphenyl)-4-butyl-1,3-dihydro-3-[[6-[2-(1H-tetrazol-5-yl)phenyl]-3-pyridinyl]methyl]-2H-imidazol-2-one]
Assay C Duration [1]: >180 min
Assay C Inhibition (%) [1]: 75%

CCCCc1cn(-c2c(C)cc(C)cc2C)c(=O)n1Cc1ccc(-c2ccccc2-c2nnn[nH]2)nc1 [Example 5, 1-(2,4,6-trimethylphenyl)-4-butyl-1,3-dihydro-3-[[6-[2-(1H-tetrazol-5-yl)phenyl]-3-pyridinyl]methyl]-2H-imidazol-2-one]
Assay C Duration [1]: >180 min
Assay C Inhibition (%) [1]: 70%
Assay B pA2 [2]: 8.59 and 8.89

CCCCc1cn(-c2c(C)cc(C(C)(C)C)cc2C)c(=O)n1Cc1ccc(-c2ccccc2-c2nnn[nH]2)nc1 [Example 6, 1-(2,6-dimethyl-4-tertbutylphenyl)-4-butyl-1,3-dihydro-3-[[6-[2-(1H-tetrazol-5-yl)phenyl]-3-pyridinyl]methyl]-2H-imidazol-2-one]
Assay B pA2 [2]: 8.51 and 8.78

CCCCc1cn(-c2c(CC)cccc2CC)c(=O)n1Cc1ccc(-c2ccccc2-c2nnn[nH]2)nc1 [Example 7, 1-(2,6-diethylphenyl)-4-butyl-1,3-dihydro-3-[[6-[2-(1H-tetrazol-5-yl)phenyl]-3-pyridinyl]methyl]-2H-imidazol-2-one]
Assay C Inhibition (%) [1]: 20%

CCCCc1cn(-c2c(C(C)C)cccc2C(C)C)c(=O)n1Cc1ccc(-c2ccccc2-c2nnn[nH]2)nc1 [Example 8, 1-(2,6-diisopropylphenyl)-4-butyl-1,3-dihydro-3-[[6-[2-(1H-tetrazol-5-yl)phenyl]-3-pyridinyl]methyl]-2H-imidazol-2-one]
Assay B pA2 [2]: 7.14 and 7.07
